This note sets out measurements from US10711007B2, “Selective inhibitors of protein arginine methyltransferase 5 (PRMT5)” (Prelude Therapeutics, Incorporated, priority 2018, dated 2020).

Assay [1] concerns γ-globin expression in K562 cells. In words: γ-globin induction by quantitative PCR in K562 cells. Type of assay: cell-based. Conditions: 1 μM, 6 days of treatment, N=1. The protocol: Compounds were dissolved in DMSO to make 10 mM stock solutions, and further diluted to make 1 mM and 0.1 mM stocks.
K562 cells were purchased from ATCC and maintained in Iscove's DMEM (Corning Cellgro, Catalog #15-016-CVR) supplemented with 10% v/v FBS (GE Healthcare, Catalog #: SH30910.03) in a CO2 incubator (5% CO2) at 37° C. Cells were plated at a density of 5×10^5 cells/ml and treated with compound at final concentrations of 0.1 and 1 μM. Media and compound were renewed after 3 days in culture and cells were collected for RNA isolation after 6 days of treatment.
Assessment of γ-Globin Induction by Quantitative PCR
RNA was isolated using Quick-RNA Microprep kit (Zymo Research, Catalog # Z1050), cDNA was synthesized using qScript cDNA SuperMix (Quantabio, Catalog #95048). Quantitative PCR for y-globin was performed using PerfeCTa SYBR Green FastMix (Quantabio, Catalog #95071) on Bio-Rad CFX Connect Real-Time PCR Detection System. Gene expression analysis was performed using CFX Manager software.
Assessment of γ-Globin Induction by Quantitative PCR in K562 Cells
Compounds were dissolved in DMSO to make 10 mM stock solutions, and further diluted to make 1 mM and 0.1 mM stocks. K562 cells were purchased from ATCC and maintained in Iscove's DMEM (Corning Cellgro, Catalog #15-016-CVR) supplemented with 10% v/v FBS (GE Healthcare, Catalog #: SH30910.03) in a CO2 incubator (5% CO2) at 37° C. […]

Assay [2] has as its system sDMA (SmD3me2s) in human PBMCs. In words: Western blotting for sDMA in PHA-L activated human PBMCs. The format is cell-based. Conditions: PBMC, 72 h, 3 days. On the procedure: Compound Titration and Cell Culture:
Compounds were dissolved in DMSO to make 10 mM stock solutions. Human peripheral blood mononuclear cells (PBMCs) from healthy donors were purchased from AllCells (Emeryville, Calif.), maintained in RPMI 1640 (Corning Cellgro, Catalog #: 10-040-CV) supplemented with 10% v/v heat-inactivated FBS (GE Healthcare, Catalog #: SH30910.03), 2 mM L-Glutamine (Corning Cellgro, Catalog #25005CV) and 1× Penicillin-Streptomycin (Sigma-Aldrich, Catalog # P4333) in a CO2 incubator (5% CO2) at 37° C.
To Determine Enzyme Inhibition IC50 Values in Human PBMCs:
Freshly thawed cells were seeded at a density of 25×10^5 cells/ml in 2 ml of media in a 12 well plate. Cells were activated by addition of 5 μg/ml PHA-L (Sigma-Aldrich, Catalog # L4144) for 3 days. A series of 8-point, 3-fold dilutions of compound were dispensed into wells from 1 mM stock solution using TECAN digital dispenser (D300e) and concentration of DMSO was normalized to 0.1%. […]
Cells were harvested 3 days later, resuspended in 15 μL PBS, lysed in 4% SDS, and homogenized by passing through homogenizer column (Omega Biotek, Catalog #: HCR003). Total protein concentration were determined by BCA assay (ThermoFisher Scientific, Catalog #: 23225). […] SmD3me2s bands were quantified by ImageJ. […] IC50 values were calculated using Graphpad Prism ([Inhibitor] vs. normalized response-Variable slope).
Background: Immunoblotting shows a protein as a band on a membrane.

Each structure is given as a SMILES string.

Consider `Nc1ncnc2c1ccn2[C@@H]1O[C@H]([C@@H]2OCc3ccc(Cl)cc32)[C@@H](O)[C@H]1O` [Example 5, (2R,3R,4S,5S)-2-(4-amino-7H-pyrrolo[2,3-d]pyrimidin-7-yl)-5-((R)-6-chloro-1,3-dihydroisobenzofuran-1-yl)tetrahydrofuran-3,4-diol], for which the “increase in expression of γ-globin” value in assay [1] turned out to be 8 fold. Moreover, the midpoint of inhibition in assay [2], the IC50, lay at 0.016 µM.
